{"source": "patent US20100168146A1", "about": "“Composition Comprising (R)-Spiro[L-Azabicyclo[2.2.2]Octane-3,2'(3'H)-Furo[2,3-B]Pyridine (AZD0328) and its Use in the Treatment of Alzheimer's Disease, ADHD or Cognitive Dysfunction” (priority 2008, published 2010)", "key": {"[1]": {"assay": "PK/TK single dose studies", "format": "in vivo", "settings": "rhesus monkey, plasma", "protocol": "Pharmacokinetic studies in rats and monkeys were used to estimate the plasma concentrations associated with doses at which AZD0328 improved cognitive performance in these species. For example, in rhesus monkeys, two studies were conducted to determine the pharmacokinetic profile of AZD0328 after administration of 0.048 and 1.7 mg per kg AZD0328. […] We thus estimated the peak plasma concentrations in monkeys that received AZD0328 at 0.00048-0.016 mg per kg to be 0.6-18 nM. Similar studies and calculations in rats, when extended to mice, led us to estimate plasma concentrations at 0.001-0.1 mg per kg body weight to be 0.29-100 nM in these species.\nThis section provides a summary of the pharmacokinetic and metabolism properties of AZD0328 derived from in vivo studies. […] The derived PK/TK parameters from these studies are presented in Table 4 for single dose studies (DMR4, 0619LR, 20030191PCR, DM016, DMB10, DMW12, 50190, 0190DD and 03.330/1), and are presented in Table 5 multiple dose PK/TK studies (DMR4, 0612AR, DMB15, 50190, 0190DD and 0295AD)."}, "Pgp transporter": {"target": "Pgp transporter (Homo sapiens, UniProt P08183)", "sequence (P08183 whole entry)": "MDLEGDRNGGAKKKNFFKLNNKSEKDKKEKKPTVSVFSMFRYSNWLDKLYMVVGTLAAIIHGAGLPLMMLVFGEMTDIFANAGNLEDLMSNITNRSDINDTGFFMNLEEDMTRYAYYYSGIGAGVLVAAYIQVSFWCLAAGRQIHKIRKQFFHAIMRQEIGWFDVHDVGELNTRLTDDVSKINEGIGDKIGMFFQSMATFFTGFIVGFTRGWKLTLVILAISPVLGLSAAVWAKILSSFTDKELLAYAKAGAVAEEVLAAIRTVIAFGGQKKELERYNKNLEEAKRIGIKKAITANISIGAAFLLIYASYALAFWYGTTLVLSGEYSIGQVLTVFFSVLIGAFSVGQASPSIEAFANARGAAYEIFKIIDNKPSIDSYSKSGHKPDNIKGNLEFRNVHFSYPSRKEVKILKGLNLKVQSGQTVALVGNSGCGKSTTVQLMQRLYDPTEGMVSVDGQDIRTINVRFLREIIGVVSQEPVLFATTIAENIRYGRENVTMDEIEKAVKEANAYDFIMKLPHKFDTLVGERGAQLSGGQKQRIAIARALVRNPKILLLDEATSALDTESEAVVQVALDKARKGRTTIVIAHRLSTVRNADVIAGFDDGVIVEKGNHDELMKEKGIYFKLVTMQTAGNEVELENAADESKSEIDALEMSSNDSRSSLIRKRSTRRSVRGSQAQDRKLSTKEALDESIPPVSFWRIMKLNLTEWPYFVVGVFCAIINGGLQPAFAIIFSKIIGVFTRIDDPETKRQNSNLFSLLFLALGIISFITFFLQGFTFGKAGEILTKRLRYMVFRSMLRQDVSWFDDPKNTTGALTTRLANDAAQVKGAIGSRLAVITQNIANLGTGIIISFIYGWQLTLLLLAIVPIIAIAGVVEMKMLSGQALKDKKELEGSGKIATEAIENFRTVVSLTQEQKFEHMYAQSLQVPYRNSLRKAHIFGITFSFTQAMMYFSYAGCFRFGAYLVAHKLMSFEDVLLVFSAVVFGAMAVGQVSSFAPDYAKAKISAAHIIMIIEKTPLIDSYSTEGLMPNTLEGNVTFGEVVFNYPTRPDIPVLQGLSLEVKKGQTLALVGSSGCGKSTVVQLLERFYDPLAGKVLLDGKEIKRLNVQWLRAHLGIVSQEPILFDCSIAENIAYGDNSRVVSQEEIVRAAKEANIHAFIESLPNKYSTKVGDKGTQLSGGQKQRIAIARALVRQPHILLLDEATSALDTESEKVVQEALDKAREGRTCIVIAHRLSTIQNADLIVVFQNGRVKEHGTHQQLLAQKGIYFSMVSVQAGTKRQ", "assay": "Digoxin transport, cell-based assay", "format": "in vitro ADME", "description": "(§1) The 50% bioavailability of AZD0328 in human was conservatively selected based on the observations from rat, dog and monkey."}, "[2]": {"assay": "Predicted human PK / exposure (allometric scaling of rat and monkey data)", "protocol": "as §1\nGiven the findings in the 1 month repeated dose toxicology studies in the rats, it is reasonable to set human systemic exposure limits following single dose administration equal to the exposure observed at NOAEL for renal tubule vacuolation. The corresponding human equivalent dose, based on the FDA guidance (via allometric scaling of body surface area) is, 0.35 mg/kg. A dose of 0.03 mg/day is proposed as a starting dose."}, "rhesus monkeys": {"test_system": "rhesus monkeys", "assay": "Intravenous self-administration (reinforcing potential)"}, "rats [3]": {"test_system": "rats", "assay": "Nicotine drug discrimination", "settings": "Wistar, rat, in vivo, sc", "protocol": "AZD0328 was tested for its potential to produce nicotine-like stimulus effects after subcutaneous administration in a drug-discrimination procedure (Table 3)."}, "rats [4]": {"test_system": "rats", "assay": "Modified Irwin screen", "format": "in vivo", "settings": "Wistar rat, oral gavage, up to 4 h postdose", "protocol": "The effects of AZD0328 were assessed in the modified Irwin screen, a behavioural, neurological and overt toxicity scoring protocol battery designed to detect a wide range of side effects (Table 3). The findings in the Irwin screen serve as a gross indication of CNS-mediated effects."}, "dogs": {"test_system": "dogs", "assay": "Cardiovascular telemetry / ECG", "format": "in vivo", "settings": "dog", "protocol": "The cardiovascular effects of orally administered AZD0328 were assessed dogs implanted with telemetry transmitters (Table 3). The main purpose of the study was to evaluate effects on the QT interval of the ECG during a 7-days dosing period followed by 5 days of recovery, thus enabling assessment of any accumulation of effects and the recovery back to baseline. Systolic, diastolic and mean arterial blood pressure, heart rate, lead II ECG and core body temperature were recorded continuously. The PR, QRS and QT intervals of the ECG were measured, and the QT interval was corrected for changes in heart rate using the method of Van de Water (QTcV)."}, "dog Purkinje fibre": {"test_system": "dog Purkinje fibre", "assay": "Dog isolated cardiac Purkinje fibres, action potentials", "settings": "stimulation 0.5 and 1 Hz", "protocol": "Effects of AZD0328 on cardiac action potentials were assessed in 4 dog Purkinje fibre preparations. (Table 3). The following action potential parameters were measured at the stimulation frequencies 0.5 and 1 Hz: action potential duration at 50% (APD50), 70% (APD70) and 90% (APD90) of repolarisation; the maximum velocity of the action potential upstroke (Vmax); the action potential amplitude (APA) and the resting membrane potential (RMP). At both stimulation frequencies, AZD0328 caused a concentration-dependent prolongation of APD50, APD70 and APD90, with significant effects at 5.6 μM and above. There was also an indication of proarrhythmic potential of the compound. A 10% increase in APD90 in the isolated dog Purkinje fibre is seen at concentrations between 5.6 and 16.8 μm."}, "guinea pigs": {"test_system": "guinea pigs", "assay": "Cardiac repolarisation in anesthetised guinea pig (MAP)", "format": "in vivo", "settings": "highest dose, total plasma concentration 8.5 μM", "protocol": "Effects of AZD0328 on ventricular repolarisation and intracardiac conduction were investigated in 6 anesthetised and ventilated guinea pigs (Table 3). For the electrophysiological characterisation, monophasic action potentia MAP duration at 90% repolarisation (MAPD90), ventricular conduction velocity (MAP rise time), and atrioventricular (AV) conduction time were recorded during cardiac pacing. AZD0328 had dose-dependent effects on the electrophysiological activities in the guinea pig heart. At the highest dose, resulting in a total plasma concentration of 8.5 μM, MAPD90 and AV conduction time were prolonged by 20% and 13%, respectively. It is concluded that AZD0328 delayed ventricular repolarisation in the anesthetised guinea pig by 10% at a total plasma concentration of 2.4 μM."}, "ferrets": {"test_system": "ferrets", "assay": "Emetic potential", "format": "in vivo", "settings": "ferret", "protocol": "The emetic potential of AZD0328 was investigated in ferrets (n=6-8/dose) following a single oral dose of vehicle or AZD0328 (Table 3). Videotape recordings were used for observation of the animals up to 4 h after dose for quantitation and timing of emetic behaviours, characterised as retches (abdominal contractions), vomits and wet-dog shakes."}}, "note": "Where “and” joins values, the source holds several entries; their conditions need not be identical. Identical values can stand only once. Entries after “also recorded” stand apart in the source; their conditions may differ. Like-named read-outs stand apart in the source and are kept apart here.", "data": [{"smiles": "c1cnc2c(c1)C[C@@]1(CN3CCC1CC3)O2", "note": "[AZD0328, (R)-Spiro[1-azabicyclo[2.2.2]octane-3,2′(3′H)-furo[2,3-b]pyridine]]", "values": [{"measurement": "AUC", "setting": "[1]; male, im, 0.048 mg/kg, read-out: AUC (converted)", "value": "14.9 ng·h/mL and 0.0684 µM·h"}, {"measurement": "AUC", "setting": "[1]; intramuscular, 0.016 mg/kg, rhesus monkeys, read-out: AUC at NOAEL for behavioral side effects", "value": 0.028, "unit": "µM·h"}, {"measurement": "Pgp mediated digoxin transport", "setting": "Pgp transporter", "value": "did not significantly inhibit"}, {"measurement": "Predicted free human therapeutic plasma level", "setting": "[2]", "value": "0.5 to 1.7", "unit": "nM"}, {"measurement": "Human equivalent dose of the rat NOAEL (allometric scaling of body surface area)", "setting": "[2]; NOAEL for renal tubule vacuolation", "value": 0.35, "unit": "mg/kg"}, {"measurement": "Bioavailability in human, conservatively selected", "setting": "[2]; human", "value": 50, "unit": "%"}, {"measurement": "iv bolus dose after which one monkey died within minutes", "setting": "rhesus monkeys; initial dose-finding study", "value": "receiving 34.8 mg/kg as iv bolus"}, {"measurement": "Reinforcing effect", "setting": "rhesus monkeys; rhesus monkey, iv infusion 0.384, 1.15 and 3.84 mg/kg/infusion", "value": "did not display reinforcing properties; also recorded: No reinforcing effect seen at any"}, {"measurement": "Self-administration level", "setting": "rhesus monkeys; rhesus monkey, not greater than saline", "value": "0.2-1.7 infusions per session"}, {"measurement": "Dose up to which nicotine-like stimulus properties were lacking", "setting": "rats [3]", "value": "properties at doses up to 5.4 mg/kg"}, {"measurement": "Dose with sedation", "setting": "rats [4]", "value": "129.8 mg/kg up to 4 h postdose."}, {"measurement": "Body temperature, PR or QRS interval", "setting": "dogs; any dose level, 7 or 1 day dosing", "value": "no effect"}, {"measurement": "BP and/or HR", "setting": "dogs; oral gavage", "value": "increased at all doses."}, {"measurement": "Emesis", "setting": "dogs; single doses 17.3 and 34.6 mg/kg (mid and high dose groups)", "value": "frequent vomiting; also recorded: severe emesis. BP and/or HR"}, {"measurement": "Concentration with significant prolongation of APD50, APD70 and APD90", "setting": "dog Purkinje fibre", "value": "≥ 5.6", "unit": "µM"}, {"measurement": "AV conduction time prolongation", "setting": "guinea pigs", "value": 13, "unit": "%"}, {"measurement": "MAPD90 prolongation", "setting": "guinea pigs", "value": 20, "unit": "%"}, {"measurement": "Emetic responses", "setting": "ferrets; oral gavage 5.6, 16.9 or 56.2 mg/kg", "value": "retching, vomiting and wet-dog shakes at all doses"}, {"measurement": "Dose with statistically significant retches vs vehicle", "setting": "ferrets; single oral dose", "value": 5.6, "unit": "mg/kg"}]}]}
